# Test results reported in patent US8513307B2, “N-phenylacetamide inhibitors of the enzyme SOAT-1 and pharmaceutical/cosmetic compositions comprised thereof” (Galderma Research & Development, priority 2007, dated 2013).
# Target: T1, enzyme ACAT-1 (Homo sapiens, UniProt P35610)
# T1 construct: endogenous in cells; host or cells: HepG2
# T1 sequence (P35610 1-550): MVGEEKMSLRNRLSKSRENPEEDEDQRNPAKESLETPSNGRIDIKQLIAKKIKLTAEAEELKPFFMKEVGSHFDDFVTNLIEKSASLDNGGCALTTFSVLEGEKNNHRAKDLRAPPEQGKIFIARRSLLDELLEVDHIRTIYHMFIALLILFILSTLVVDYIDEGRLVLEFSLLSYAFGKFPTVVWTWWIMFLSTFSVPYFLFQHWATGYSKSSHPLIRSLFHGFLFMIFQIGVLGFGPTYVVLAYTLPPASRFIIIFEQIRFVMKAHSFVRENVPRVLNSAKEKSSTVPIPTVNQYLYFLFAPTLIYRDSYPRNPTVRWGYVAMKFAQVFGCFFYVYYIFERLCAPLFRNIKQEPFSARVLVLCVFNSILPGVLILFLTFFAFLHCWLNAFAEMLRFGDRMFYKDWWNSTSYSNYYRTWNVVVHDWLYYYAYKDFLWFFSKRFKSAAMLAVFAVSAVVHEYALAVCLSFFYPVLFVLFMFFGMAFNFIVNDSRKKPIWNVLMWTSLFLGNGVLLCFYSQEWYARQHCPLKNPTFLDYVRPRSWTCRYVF
# Test: primary enzymatic test HepG2: NBD-cholesterol fluorescence test of inhibitory action on ACAT-1 (SOAT-1)
# Format: cell-based
# Details: HepG2 cells, NBD-cholesterol 1 μg/ml, incubation 6 h at 37° C., fluorescence excitation 490 nm, emission 540 nm
# Method: The compounds (I) according to the invention, as well as their pharmaceutically acceptable salts, solvates and/or hydrates, have inhibitory properties on the enzyme SOAT-1. This inhibitory activity on the enzyme SOAT-1 is measured according to a primary enzymatic test HepG2, as described in Example 16.
# The compounds of formula (I) according to the invention were subjected to a test allowing their inhibitory action to be evaluated with respect to the enzyme ACAT-1 inspired by the following publication: “Identification of ACAT1- and ACAT2-specific inhibitors using a novel, cell-based fluorescence assay: individual ACAT uniqueness”, J. Lipid. Res (2004) vol 45, pages 378-386. The principle of this test is based on the employment of NBD-cholesterol, an analogue of cholesterol whose fluorescence depends on its environment. When this is present in a polar environment, it is weakly fluorescent although in a nonpolar environment it is strongly fluorescent. Free NBD-cholesterol locates itself in the cell membranes and is weakly fluorescent in this polar environment. When the NBD-cholesterol is esterified by ACAT, the ester of NBD-cholesterol locates itself in the nonpolar lipid droplets and is in that case strongly fluorescent.
# The method below is applied: The HepG2 cells are incubated in the presence of NBD-cholesterol (1 μg/ml) and of the compound of formula (I) to be tested in black 96-well plates with a transparent base at a rate of 30 000 cells per well. After incubation for 6 h at 37° C., under 5% CO2, the medium is eliminated by turning over and the cells are washed with 2 times 100 μl of PBS. After addition of 50 μl of lysis buffer (NaPO4 10 mM, Igepal 1%), the plates are stirred for 5 min and read in fluorescence (excitation 490 nm, emission 540 nm) on a FUSION apparatus (Perkin-Elmer).
row,SMILES,IC50 [nM]
1,"CC(C)c1cccc(C(C)C)c1NC(=O)CN1CC2(CCCCC2)N(c2ccccc2)C1=O [I.1, N-(2,6-Diisopropylphenyl)-2-(2-oxo-1-phenyl-1,3-diazaspiro[4.5]dec-3-yl)-acetamide]",5.4
2,"Cc1ccc(N2C3(CCCCC3)CN(CC(=O)Nc3c(C(C)C)cccc3C(C)C)S2(=O)=O)cc1 [I.5, N-(2,6-Diisopropylphenyl)-2-(2,2-dioxo-1-p-tolyl-2lambda*6*-thia-1,3-di-azaspiro[4.5]dec-3-yl)acetamide]",3.2
3,"CCc1ccc(N2C(=O)N(CC(=O)Nc3c(C(C)C)cccc3C(C)C)CC23CCCCC3)cc1 [I.9, N-(2,6-Diisopropylphenyl)-2-[1-(4-ethylphenyl)-2-oxo-1,3-diazaspiro-[4.5]dec-3-yl]acetamide]",7.1
4,"CCC1(CC)CN(CC(=O)Nc2c(C(C)C)cccc2C(C)C)C(=O)N1c1ccc(C)cc1 [I.13, 2-(4,4-Diethyl-2-oxo-3-p-tolylimidazolidin-1-yl)-N-(2,6-diisopropylphenyl)-acetamide]",0.9
